In experiment [1] the test system is Adults with Type 2 Diabetes Mellitus. The following applies: starting HbA1c below 8; 300 mg/day; as long as 52 weeks; cited from earlier work.
In experiment [2] the test system is subject with T2D. Kind of experiment: Blood glucose response to postprandial exercise. It counts as in vivo, human. As to the method:
The patient of Example 1 was encouraged to track glucose levels, including postprandial glucose levels, to observe the effect of postprandial exercise and lifestyle changes. To control triglyceridemia they also started over the counter orlistat at a 60 mg dose daily with a daily multi-vitamin supplement and an additional vitamin D supplement. They had discontinued metformin and statins. Instead close monitoring of blood glucose levels was undertaken.
In Example 2, when using orlistat at 60 mg daily, the patient noticed that blood glucose levels reduced to a level of about 90 to 100 mg/dL, which is in the normal range, after a modest meal with a brisk walk after eating. The blood glucose levels stayed below 100 mg/dL for several hours. […] Effectively exercise is contraindicated in standard of care treatments for T2D due to the use of medications that can drive the glucose levels too low.
A subject with T2D with fasting glucose levels of over 140 mg/dL was treated with 60 mg Orlistat. The subject undertook exercise in a postprandial state within about an hour and a half after eating. […]
The subject with T2D was treated with Pioglitazone 15 mg and postprandial exercise but no Exercise Sensitizer or SGLT2 inhibitor. Over twenty minutes of postprandial exercise glucose readings were taken every 5 minutes for fifteen minutes. […]
The subject with T2D was treated with Exercise Sensitizer Colestipol (1 gm dose) and postprandial exercise. Over twenty minutes of postprandial exercise glucose readings were taken every 5 minutes for fifteen minutes. […]
The subject with T2D was treated with Exercise Sensitizer Colestipol (1 gm) before each meal and with 60 mg. of Exercise Sensitizer Orlistat and 100 mg. of Canagliflozin daily. […] Over twenty minutes of postprandial exercise on an elliptical trainer at a resistance setting of 6, glucose readings dropped to about 81 to 84 mg/dL. […]

Experiment [3] has as its system subject with T2D. Kind of experiment: Blood glucose response to exercise in a fasting state. It counts as in vivo, human. The following applies: 60 mg Orlistat; over fifteen to thirty minutes. The procedure: A subject with T2D with starting fasting glucose level of about 140 mg/dL to 160 mg/dL and HbA1c of about 8 was treated with Orlistat. In one aspect, the subject with T2D was treated with 60 mg Orlistat and exercised in a fasting state. […] Although not intending to be bound by theory, one factor may be the natural inhibition of gluconeogenesis in the postprandial state. In addition, the release of fatty acids or lack thereof may affect the release of cholecystokinin and other downstream effects and thus account for the synergy between the postprandial state and the Exercise Sensitizers.

Experiment [4] has as its system subject with T2D. The experiment in a line: Three month treatment with postprandial exercise: fasting glucose, HbA1c, triglycerides, BMI. It counts as in vivo, human. The following applies: postprandial exercise with orlistat; from over 500 mg/dL. As to the method:
Over three months to speed up the slow progress the subject with T2D with fasting glucose level of about 140 mg/dL and HbA1c of about 7.5 or above was treated with Orlistat at the lowest marketed dose of 60 mg and the lowest dose for either Canafliglozin (100 mg) and Dapagliflozin (5 mg). Postprandial exercise with orlistat reduced triglycerides to about 260 mg/dL from over 500 mg/dL.
An invasive glucose testing meter was used to simulate a post-prandial invasive/noninvasive glucose monitoring device. Specifically a combination of orlistat and a SGLT2 inhibitor (Canafliglozin and Dapagliflozin) was administered. Treatment with orlistat (60 mg) daily alone with […]
The fasting glucose levels changed and continued to decrease overall over the three months.
The fasting glucose levels were obtained using a portable glucose meter while the fasting glucose (again to check the meter and strip accuracy) and HbA1c were determined using laboratory tests that included a lipid panel. […] Also the subject could not be fully compliant—many meals were not followed by exercise. The treatment with Exercise Sensitizer and SGLT2 inhibitor was adhered to strictly. Still, the triglyceride levels dropped to 260 and eventually to about 220 from about 500. […]

Take `Cc1ccc([C@@H]2O[C@H](CO)[C@@H](O)[C@H](O)[C@H]2O)cc1Cc1ccc(-c2ccc(F)cc2)s1` [Canagliflozin, (2S,3R,4R,5S,6R)-2-{3-[5-[4-Fluoro-phenyl)-thiophen-2-ylmethyl]-4-methyl-phenyl}-6-hydroxymethyl-tetrahydro-pyran-3,4,5-triol]: the “improvement in HbA1c” value in experiment [1] was “less than 0.8”.
For the compound `CCc1ccc(CCOc2ccc(CC3SC(=O)NC3=O)cc2)nc1` (stereo not drawn) [Pioglitazone], the “blood glucose level during postprandial exercise” value in the experiment on subject with T2D [2] (Pioglitazone 15 mg, at about ten minutes, then leveled off, from about 175 mg/dL) is “about 103 mg/dL”.
Take `CCCCCCCCCCC[C@@H](C[C@@H]1OC(=O)[C@H]1CCCCCC)OC(=O)[C@H](CC(C)C)NC=O` [Orlistat, (S)—((S)-1-((2S,3S)-3-Hexyl-4-oxooxetan-2-yl)tridecan-2-yl) 2-formamido-4-methylpentanoate]: the “blood/plasma glucose level after postprandial exercise” value in the experiment on subject with T2D [2] (60 mg Orlistat, exercise within about an hour and a half after eating, fasting glucose over 140 mg/dL) was “dropped sharply to the normal range”. Further, in the experiment with subject with T2D [2] (orlistat 60 mg daily, several hours), the “blood glucose level for several hours after the postprandial walk” value is on record as “below 100 mg/dL”. In the experiment with subject with T2D [3], the “blood/plasma glucose level on exercise in a fasting state” value is given as “increased or remained steady in the high range”. In the experiment on subject with T2D [4], the triglycerides result is “about 260 mg/dL”.

These data come from patent publication US10743813B2, “Diabetes control using postprandial feedback” (priority 2014, dated 2020).
